The values that follow come from patent publication US20070092577A1, “Dietary calcium for reducing the production of reactive oxygen species” (University of Tennessee Research Foundation, priority 2005, published 2007).

For one experiment, the system named is adiponectin. Nature of the experiment: Adiponectin expression in differentiated Zen-bio human adipocytes. It is filed as cell-based. Conditions: 10 nmol/L 1α, 25-(OH)2-D3 or 10 μmol/L nifedipine, 48 h; p=0.377. The procedure: Human pre-adipocytes used in this study were supplied by Zen-Bio (Research Triangle, N.C.). […] The cells are isolated from the stromal vascular fraction of human subcutaneous adipose tissue and differentiated in vitro as follows: […] Preadipocytes were maintained in this differentiation medium for 3 days and subsequently cultured in adipocyte medium in which BRL49653 and MIX were omitted. Cultures were re-fed every 2-3 days till fully differentiated. Cells were incubated in serum free medium overnight before chemical treatment. Chemicals were freshly diluted in adipocyte medium before treatment. […] Cell viability was measured via trypan blue exclusion. Adipocyte and muscle 18s, TNFα, IL-6, IL-8, IL-15 and adiponectin were quantitatively measured using a smart cycler real-time PCR system (Cepheid, Sunnyvale, Calif.) with a TaqMan 1000 Core Reagent Kit (Applied Biosystems, Branchburg, N.J.). […] Reactions of quantitative RT-PCR for standards and unknown samples were also performed according to the instructions of Smart Cycler System (Cepheid, Sunnyvale, Calif.) and TaqMan Real Time PCR Core Kit (Applied Biosystems, Branchburg, N.J.). The mRNA quantitation for each sample was further normalized using the corresponding 18s quantitation.

A further experiment concerns TNFα. The experiment is described as follows: TNFα expression in differentiated 3T3-L1 adipocytes. It is filed as cell-based, mouse. Conditions: 10 nmol/L, 48 h. The procedure: 3T3-L1 pre-adipocytes were incubated at a density of 8000 cells/cm^2 (10 cm^2 dish) and grown in Dulbecco's modified Eagle's medium (DMEM) containing 10% FBS and antibiotics (adipocyte medium) at 37° C. in 5% CO2 in air. Confluent pre-adipocytes were induced to differentiate with a standard differentiation medium consisting of DMEM-F10 (1:1, vol/vol) medium supplemented with 1% fetal bovine serum (FBS), 1 μM dexamethasone, isobutylmethylxanthine (IBMX) (0.5 mM) and antibiotics (1% Penicillin-Streptomycin). Pre-adipocytes were maintained in this differentiation medium for 3 days and subsequently cultured in adipocyte medium. Cultures were re-fed every 2-3 days to allow 90% cells to reach fully differentiation before conducting chemical treatment. […] Cell viability was measured via trypan blue exclusion. Adipocyte and muscle 18s, TNFα, IL-6, IL-8, IL-15 and adiponectin were quantitatively measured using a smart cycler real-time PCR system (Cepheid, Sunnyvale, Calif.) with a TaqMan 1000 Core Reagent Kit (Applied Biosystems, Branchburg, N.J.). […] Reactions of quantitative RT-PCR for standards and unknown samples were also performed according to the instructions of Smart Cycler System (Cepheid, Sunnyvale, Calif.) and TaqMan Real Time PCR Core Kit (Applied Biosystems, Branchburg, N.J.). The mRNA quantitation for each sample was further normalized using the corresponding 18s quantitation.

A further experiment has as its system cyclin A. Nature of the experiment: Cyclin A expression in 3T3-L1 adipocytes. Conditions: added to glucose 30 mmol/L, 48 hours; nifedipine 10 μmol/L. It is filed as cell-based, murine. The procedure:
3T3-L1 preadipocytes were incubated at a density of 8000 cells/cm^2 (10 cm^2 dish) and grown in Dulbecco's modified Eagle's medium (DMEM) containing 10% FBS and antibiotics (adipocyte medium) at 37° C. in 5% CO2 in air. Confluent preadipocytes were induced to differentiate with a standard differentiation medium consisting of DMEM-F 10 (1:1, vol/vol) medium supplemented with 1% FBS, 1 μM dexamethasone, IBMX (0.5 mM) and antibiotics (1% Penicillin-Streptomycin). Preadipocytes were maintained in this differentiation medium for 3 days and subsequently cultured in adipocyte medium. Cultures were re-fed every 2-3 days to allow 90% of cells to reach full differentiation before conducting chemical treatment. Chemicals were freshly diluted in adipocyte medium before treatment. […] Cell viability was measured via trypan blue exclusion. Adipocyte 18s, cyclin A, NADPH oxidase, and UCP2 were quantitatively measured using a Smart Cycler Real Time PCR System (Cepheid, Sunnyvale, Calif.) with a TaqMan 1000 Core Reagent Kit (Applied Biosystems, Branchburg, N.J.). […] Reactions of quantitative RT-PCR for standards and unknown samples were also performed according to the instructions of Smart Cycler System (Cepheid, Sunnyvale, Calif.) and TaqMan Real Time PCR Core Kit (Applied Biosystems, Branchburg, N.J.). The mRNA quantitation for each sample was further normalized using the corresponding 18s quantitation.

As for `C=C1/C(=C\C=C2/CCC[C@]3(C)[C@@H]([C@H](C)CCCC(C)(C)O)CC[C@@H]23)C[C@@H](O)C[C@@H]1O` [calcitriol, 1, 25-Dihydroxyvitamin D], the “effect on adiponectin expression” value in the experiment on adiponectin is “no effect”. The “stimulation of TNFα expression” value in the experiment on TNFα was determined as 135%. Besides, the “effect on glucose stimulated cyclin A expression” value in the experiment on cyclin A is “augmented”.
